Laboratory results: US10202388B2, “Fused-ring compounds, pharmaceutical composition and uses thereof” (SHANGHAI DE NOVO PHARMATECH CO., LTD., priority 2015, dated 2019)
pIC50: −log10 of the molar value.

Assays:
Human recombinant IDO1 = Human recombinant IDO1 (Homo sapiens (Human), UniProt P14902); experiment: IDO1 enzymatic assay (UV absorption at 321 nm); format: biochemical; conditions: human recombinant IDO1, 80 min incubation, room temperature; read-out: hIDO1 IC50
Protocol: The detailed experimental method is as follow:
The compounds described in this disclosure were dissolved in 10% DMSO to predefined concentration. All of the reactions were conducted at room temperature in this disclosure. Human recombinant IDO1 (BPS Bioscience) was added so that its concentration was 200 nm in the reaction buffer solution (200 μL). […] 10 μL test compound solution was added into the above reaction solution (200 μL), so that the final concentration of DMSO in all reaction wells was 0.5%. % concentration was volume %. After 80 min incubation of the reaction solution, the UV absorbance was measured using TECAN Infinite M1000 plate reader. For the negative control (blank), 10 μl of the assay buffer was added instead of the IDO1
All reagents (excluding human recombinant IDO1) were purchased from Sigma Aldrich, MO, USA.
The percent activity in the presence of each compound was calculated according to the following equation: % activity=[(A−Ab)/(At−Ab)]×100, where A=the absorption signal in the presence of the compound, Ab=the absorption signal of blank, At=the absorption signal in the absence of the compound. […] The IC50 was calculated using non-linear regression in Graph Pad Prism® 4.

HeLa cell IDO1 = HeLa cell IDO1 (Homo sapiens (Human), UniProt P14902); experiment: HeLa cell based IDO1 inhibition assay (kynurenine readout, IFN-γ induced); conditions: HeLa cells
Chain of HeLa cell IDO1 (P14902 whole entry): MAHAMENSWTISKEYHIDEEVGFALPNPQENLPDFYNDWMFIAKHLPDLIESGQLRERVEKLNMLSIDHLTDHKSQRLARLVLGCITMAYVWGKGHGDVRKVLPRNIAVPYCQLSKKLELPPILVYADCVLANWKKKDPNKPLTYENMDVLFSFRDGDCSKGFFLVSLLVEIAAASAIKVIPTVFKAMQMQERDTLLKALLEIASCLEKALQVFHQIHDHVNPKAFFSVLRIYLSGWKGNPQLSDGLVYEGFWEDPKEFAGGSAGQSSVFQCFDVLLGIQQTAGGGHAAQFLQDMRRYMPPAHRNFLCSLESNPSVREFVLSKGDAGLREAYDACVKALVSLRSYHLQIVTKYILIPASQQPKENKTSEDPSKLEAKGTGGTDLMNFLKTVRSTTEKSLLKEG
Protocol: HeLa cell line was purchased from ATCC, cultured in MEM/EBSS medium supplemented with 10% FBS, penn-step (100,000 U/L), non-essential amino acid (0.1 Mm), sodium pyruvate (1.0 Mm). Cells were cultured at 37° C., 95% humidity and 5% CO2. […] The detailed experimental method is as follow:
25,000 HeLa cells were placed on 96-well plates. Each well contained 100 μl culture medium, subsequently IFN-γ and test compounds at specific concentrations (concentration range between 10 μM and 1 Nm, so that the final volume of culture medium was 200 μL) were added and IFN-γ was used to induce IDO1 expression. After incubation, 140 μL supernatant was transferred to 96-well plates. After adding 6.1 N TCA (10 μL), the plates were continuously incubated at 50° C. for 30 min, to hydrolyze N-formylkynurenine produced by IDO to kynurenine. The reaction solution was then centrifuged at 2500 rpm for 10 min to remove precipitate. 100 μL/well supernatant was then transferred to another 96-well plate. 100 μL of 2% (w/v) 4-N,N-dimethyl aminobenzaldehyde acetic acid solution was added and incubated at room temperature for 10 min. The yellow color derived from kynurenine was recorded by measuring absorbance at 480 nm using a microplate reader (TECAN Infinite M1000 Pro).

HeLa cell based IDO1 = HeLa cell based IDO1 (Homo sapiens (Human), UniProt P14902); experiment: Three-point IDO1 cellular assay (HeLa, 10, 100 and 1000 nM); conditions: HeLa cells, 100 ng/mL IFN-γ, 18 hours; for inhibition at 0.1 µM / inhibition values of %: at 100 nM; for inhibition at 1 µM: at 1000 nM
Chain of HeLa cell based IDO1 (P14902 whole entry): as above
Protocol: To perform the 3-point HeLa cell based IDO1 assay, HeLa cells were seeded at 25,000 cells per well into 96-well microplate in 100 μL of growth medium. Cells were incubated at 37° C. and 5% CO2 overnight. The next day 100 μL per well of diluted inhibitor in growth medium at 10, 100 and 1000 nM, respectively, was added at a final concentration of 100 ng/ML human IFN-γ. Cells were incubated at 37° C. in a CO2 incubator for 18 hours. […] The plate was incubated at 50° C. for 30 min to hydrolyze N-formylkynurenine produced by IDO1 to kynurenine. The plate was then centrifuged at 2500 rpm for 10 min to remove sediments. 100 μl of supernatant per well was transferred to another 96-well plate and mixed with 100 μL of 2% (w/v) 4-(Dimethylamino) benzaldehyde in acetic acid. The plate was incubated at room temperature for 10 minutes, the yellow color derived from kynurenine was recorded by measuring absorbance at 480 nm using a microplate reader (TECAN Infinite M1000 Pro). Cell based assays were performed in triplicate at each concentration. The absorbance data were analyzed using the computer software, Graphpad Prism. In the absence of the compound and presence of 100 ng/ML IFN-γ, the absorbance (At) in each data set was defined as 100%. The absorbance of medium blank (Ab) in each data set was defined as 0%. The percent absorbance in the presence of each compound was calculated according to the following equation: % Absorbance=(A−Ab)/(At−Ab), where A=the absorbance in the presence of the compound and IFN-γ, Ab=the absorbance of medium blank, and At=the absorbance in the absence of the compounds and presence of IFN-γ. The values of % absorbance versus the compound concentrations were then determined.

Chain of Human recombinant IDO1 (P14902 whole entry): as above

| pIC50 (HeLa cell IDO1) | Compound | further results |
| --- | --- | --- |
| > 7.00 | O=S(=O)(NC1C2CC3CC1CC(C(O)CC1c4c(F)cccc4-c4cncn41)(C3)C2)C1CC1 (stereo not shown) [Compound 81A] |  |
| > 7.00 | OC(CC1c2ccccc2-c2cncn21)C12CC3CC(C1)C(Nc1nc4ccccc4s1)C(C3)C2 (single isomer, unassigned) [Compound 125B] |  |
| 6.30 to 7.00 | O=C(Nc1ccccc1)NC12CC3CC(C1)C(C(O)CC1c4ccccc4-c4cncn41)C(C3)C2 (stereo not shown) [Compound 162A] |  |
| 6.00 to 6.30 | N#Cc1ccc(S(=O)(=O)NC2C3CC4CC2CC(C(O)CC2c5c(F)cccc5-c5cncn52)(C4)C3)cc1 (single isomer, unassigned) [Compound 69B] |  |
| > 7.00 | O=C(Nc1ccc(F)cc1)NC1C2CC3CC1CC(C(O)CC1c4c(F)cccc4-c4cncn41)(C3)C2 (stereo not shown) [Compound 93A] |  |
| 6.30 to 7.00 | CCS(=O)(=O)NC12CC3CC(C1)C(C(O)CC1c4ccccc4-c4cncn41)C(C3)C2 (stereo not shown) [Compound 167A] |  |
| > 7.00 | N#Cc1ccc(S(=O)(=O)NC23CC4CC(C2)C(C(O)CC2c5ccccc5-c5cncn52)C(C4)C3)cc1 (single isomer, unassigned) [Compound 165A] |  |
| 6.30 to 7.00 | O=C(Nc1ccccc1)NC1C2CC3CC1CC(C(O)CC1c4c(F)cccc4-c4cncn41)(C3)C2 (single isomer, unassigned) [Compound 55B] |  |
| 6.00 to 6.30 | N#Cc1ccc(S(=O)(=O)NC23CC4CC(C2)C(C(O)CC2c5ccccc5-c5cncn52)C(C4)C3)cc1 (single isomer, unassigned) [Compound 165B] |  |
| > 7.00 | OC(CC1c2ccccc2-c2cncn21)C12CC3CC(C1)C(Nc1nc4ccccc4s1)C(C3)C2 (single isomer, unassigned) [Compound 125A] |  |
| > 7.00 | CS(=O)(=O)NC12CC3CC(C1)C(C(O)CC1c4ccccc4-c4cncn41)C(C3)C2 (single isomer, unassigned) [Compound 168A] |  |
| > 7.00 | O=S(=O)(NC1C2CC3CC1CC(C(O)CC1c4c(F)cccc4-c4cncn41)(C3)C2)c1ccccc1 (single isomer, unassigned) [Compound 47B] |  |
| > 7.00 | N#Cc1ccc(S(=O)(=O)NC2C3CC4CC2CC(C(O)CC2c5c(F)cccc5-c5cncn52)(C4)C3)cc1 (single isomer, unassigned) [Compound 69A] |  |
| 5.00 to 6.00 | CS(=O)(=O)NC12CC3CC(C1)C(C(O)CC1c4ccccc4-c4cncn41)C(C3)C2 (single isomer, unassigned) [Compound 168B] |  |
| > 7.00 | O=S(=O)(NC1C2CC3CC1CC(C(O)CC1c4c(F)cccc4-c4cncn41)(C3)C2)c1ccccc1 (single isomer, unassigned) [Compound 47A] |  |
| > 7.00 | O=S(=O)(CC1CCC1)NC1C2CC3CC1CC(C(O)CC1c4c(F)cccc4-c4cncn41)(C3)C2 (single isomer, unassigned) [Compound 67B] |  |
| > 7.00 | O=C(Nc1ccc(F)c(F)c1)NC1C2CC3CC1CC(C(O)CC1c4c(F)cccc4-c4cncn41)(C3)C2 (stereo not shown) [Compound 108A] |  |
| > 7.00 | OC(CC1c2c(F)cccc2-c2cncn21)C12CC3CC(C1)C(Nc1nc4ccccc4o1)C(C3)C2 (stereo not shown) [Compound 124A] |  |
| > 7.00 | O=C(Nc1ccccc1)NC1C2CC3CC1CC(C(O)CC1c4c(F)cccc4-c4cncn41)(C3)C2 (single isomer, unassigned) [Compound 55A] |  |

The next lines start with the molecule.

| Compound | pIC50 (HeLa cell IDO1) | further results |
| --- | --- | --- |
| OC1C2CC3CC1CC([C@@H](O)CC1c4c(F)cccc4-c4cncn41)(C3)C2 (stereo partly shown) [Compound 26B] |  | pIC50 (Human recombinant IDO1): 6.30 to 7.00 |
| OC1C2CC3CC1CC([C@@H](O)CC1c4c(F)cccc4-c4cncn41)(C3)C2 (stereo partly shown) [Compound 23A-4] |  | pIC50 (Human recombinant IDO1): 5.00 to 6.00 |
| OC(Cn1c2ccccc2n2cncc12)C12CC3CC(CC(C3)C1)C2 (stereo not shown) [Compound 40] |  | pIC50 (Human recombinant IDO1): 5.00 to 6.00 |
| CS(=O)(=O)c1ccc(NC(=O)NC2C3CC4CC2CC(C(O)CC2c5c(F)cccc5-c5cncn52)(C4)C3)cc1 (stereo not shown) [Compound 101] | 6.30 to 7.00 |  |
| N#Cc1ccc(NC(=O)NC2C3CC4CC2CC(C(O)CC2c5c(F)cccc5-c5cncn52)(C4)C3)cc1 (stereo not shown) [Compound 100] | > 7.00 |  |
| O=C(Nc1ccccc1)N1C2CC3CC1CC(C(O)CC1c4c(F)cccc4-c4cncn41)(C3)C2 (stereo not shown) [Compound 208] | > 7.00 |  |
| OC1C2CC3CC1CC([C@@H](O)CC1c4ccccc4-c4cncn41)(C3)C2 (stereo partly shown) [Compound 10B] |  | pIC50 (Human recombinant IDO1): 6.30 to 7.00 |
| O=S(=O)(Cc1ccc(F)cc1)NC1C2CC3CC1CC(C(O)CC1c4c(F)cccc4-c4cncn41)(C3)C2 (stereo not shown) [Compound 71] | > 7.00 |  |
| CC(=O)Nc1ccc(NC(=O)NC2C3CC4CC2CC(C(O)CC2c5ccccc5-c5cncn52)(C4)C3)cc1 (stereo not shown) [Compound 102] | 5.00 to 6.00 |  |
| CC1(O)C2CC3CC1CC([C@@H](O)CC1c4ccccc4-c4cncn41)(C3)C2 (stereo partly shown) [Compound 14A-1] |  | pIC50 (Human recombinant IDO1): 5.00 to 6.00 |
| OC(CC1c2cccnc2-c2cncn21)C1CCCCC1 (stereo not shown) [compound 2] |  | pIC50 (Human recombinant IDO1): 5.00 to 6.00 |
| OC1C2CC3CC1CC([C@H](O)CC1c4c(F)cccc4-c4cncn41)(C3)C2 (stereo partly shown) [Compound 23A-2] |  | pIC50 (Human recombinant IDO1): 5.00 to 6.00 |
| O=C(C[C@@H]1c2ccccc2-c2cncn21)C12CC3CC(CC(C3)C1)C2 (single isomer, unassigned) [Compound 1-4] |  | pIC50 (Human recombinant IDO1): 5.00 to 6.00 |
| OC(CC1c2cc(F)ccc2-c2cncn21)C12CC3CC(CC(C3)C1)C2 (stereo not shown) [compound 7] |  | pIC50 (Human recombinant IDO1): 6.30 to 7.00 |
| CS(=O)(=O)Nc1ccc(S(=O)(=O)NC2C3CC4CC2CC(C(O)CC2c5c(F)cccc5-c5cncn52)(C4)C3)cc1 (stereo not shown) [Compound 87] | 6.00 to 6.30 |  |
| OC1C2CC3CC1CC([C@@H](O)CC1c4c(F)cccc4-c4cncn41)(C3)C2 (stereo partly shown) [Compound 26A-2] |  | pIC50 (Human recombinant IDO1): 5.00 to 6.00 |
| O=C(C[C@H]1c2ccccc2-c2cncn21)C12CC3CC(CC(C3)C1)C2 (single isomer, unassigned) [Compound 1-1] |  | pIC50 (Human recombinant IDO1): 5.00 to 6.00 |
| CC1(O)C2CC3CC1CC(C(O)CC1c4ccccc4-c4cncn41)(C3)C2 (stereo not shown) [Compound 11A] | > 7.00 |  |
| Cc1ccc(NC(=O)NC2C3CC4CC2CC(C(O)CC2c5c(F)cccc5-c5cncn52)(C4)C3)cc1 (stereo not shown) [Compound 97] | > 7.00 |  |
| OC(CC1c2ccccc2-c2cncn21)C12CC3CC(C1)C(Nc1nc4ccccc4o1)C(C3)C2 (stereo not shown) [Compound 123] | > 7.00 |  |
| O=C(Nc1ccc(Cl)cc1)NC1C2CC3CC1CC(C(O)CC1c4c(F)cccc4-c4cncn41)(C3)C2 (stereo not shown) [Compound 94A] |  | inhibition at 0.1 µM (HeLa cell based IDO1): > 50% |
| O=S(=O)(Cc1ccccc1)NC1C2CC3CC1CC(C(O)CC1c4ccccc4-c4cncn41)(C3)C2 (stereo not shown) [Compound 75B] |  | inhibition at 1 µM (HeLa cell based IDO1): > 50% |
| O=S(=O)(Nc1ccc(F)cc1)NC1C2CC3CC1CC(C(O)CC1c4ccccc4-c4cncn41)(C3)C2 (stereo not shown) [Compound 152] |  | inhibition at 1 µM (HeLa cell based IDO1): > 50% |
| Cc1ccc(CC(=O)NC23CC4CC(C2)C(C(O)CC2c5c(F)cccc5-c5cncn52)C(C4)C3)cc1 (stereo not shown) [Compound 193A] |  | inhibition at 0.1 µM (HeLa cell based IDO1): > 50% |
| OC(COC1C2CC3CC1CC(C(O)CC1c4c(F)cccc4-c4cncn41)(C3)C2)c1ccccc1 (stereo not shown) [Compound 136] |  | inhibition values of % (HeLa cell based IDO1): greater than 50% |
| O=S(=O)(Nc1ccccc1)NC1C2CC3CC1CC(C(O)CC1c4ccccc4-c4cncn41)(C3)C2 (stereo not shown) [Compound 151] |  | inhibition values of % (HeLa cell based IDO1): greater than 50% |
| CCS(=O)(=O)NC1C2CC3CC1CC(C(O)CC1c4c(F)cccc4-c4cncn41)(C3)C2 (stereo not shown) [Compound 66] | > 7.00 |  |
